Assay results published in US8975248B2, “Combinations of therapeutic agents for treating cancer” (Sigma-Tau Industrie Farmaceutiche Riunite S.p.A., priority 2004, dated 2015).
Read-outs that look alike come from different tables or passages of the source.

Legend:
A2780 ovarian carcinoma = experiment: Antitumor activity against A2780 ovarian carcinoma xenograft; type: in vivo, human (s.c. xenograft in CD1 nu/nu mice)
Protocol: Vehicle • 2. […] Oxaliplatin 7 mg/10 ml/kg and 4.7 mg/10 ml/kg, i.p. (q4dx2, days 3, 7). • 4. Combination groups: 7-t-butoxyiminomethylcamptothecin+oxaliplatin: 0.28+7, 0.28+4.7, 0.19+7, 0.19+4.7. • 5. […] Oxaliplatin 7 mg/10 ml/kg, i.p. (q7dx2, days 3, 10). • 7. Combination groups: 7-t-butoxyiminomethylcamptothecin+oxaliplatin 0.19+7.
7-8 mice/group are treated 3 days after tumor injection with the following drugs. • 1. Vehicle • 2. […] Carboplatin 50 mg/10 ml/kg, i.p. (q7dx2, days 3, 10). • 7. Combination groups: 7-t-butoxyiminomethylcamptothecin+carboplatin 0.19+50.
(§1) In all the combination groups, the drug were administered 1 h before 7-t butoxyiminomethylcamptothecin.

MCF-7 human breast ca. = experiment: Antitumor activity against MCF-7 breast carcinoma xenograft; settings: for BWL % (body weight loss): in vivo, po
Protocol: The pellets are placed in the inter scapular region one day before the tumor cells inoculation. 8 mice/group are treated 6 days after tumor injection with the following drugs: • 1. Vehicle • 2.

[1] = system: A2780/DDP platinum-resistant ovarian carcinoma; experiment: Antitumor activity against A2780/DDP xenograft; type: in vivo, human (xenograft in CD1 nu/nu mice)
Protocol: 8 mice/group are treated 3 days after tumor injection with the following drugs. • 1. Vehicle • 2.
as §1

[2] = system: NCI-H460 non-small cell lung carcinoma; experiment: Antitumor activity against NCI-H460 xenograft (docetaxel, carboplatin); type: in vivo, human (xenograft in CD1 nu/nu mice)
DU145 prostate carcinoma = experiment: Antitumor activity against DU145 xenograft; settings: for BWL % (body weight loss): in vivo, po
Protocol: 8 mice/group are treated 14 days after tumor injection with the following drugs: • 1. Vehicle • 2.
8 mice/group are also treated 14 days after tumor injection with the following drugs: • 1. […] Docetaxel 20 mg/10 mi/kg, i.p., (q7dx3, days 14, 21, 28). • 3. Combination groups: 7-t-butoxyiminomethylcamptothecin+docetaxel 0.17+20.

[3] = system: MDA MB 435S human breast cancer; experiment: Antitumor activity against MDA MB 435S xenograft; type: in vivo, human (xenograft in BALB/c nu/nu mice)
Protocol: Test system: BALB/c nu/nu mice for tumor models are used.
The cells are harvested by trypsinisation, washed twice in HBSS and counted using Trypan Blue to distinguish viable cells.
Doxorubicin (either on its own or in conjunction with Gimatecan) is administered 3 times per week intravenously, via the tail vein (i.v.). • 1. Vehicle • 2.
The paired t-test is used to determine differences in body weight changes from Day 0 to Day 13 for groups 14 and 15 and from Day 0 to Day 20 for all other groups (Table 4). All calculations are done using SigmaStat 3.0. The one way ANOVA procedure is used for statistical calculations of differences in the tumor volumes.

[4] = Maximum tolerated dose (MTD) in tumor-bearing mice; type: in vivo
NCI-H460 NSCLC [5] = settings: in vivo, po
Protocol: (§2) Mice are treated with 3 intravenously doses of paclitaxel at days 3, 10, 17 after tumor injection. […] Treatments in NCI-H460 tumor model are performed in the following groups of 8 mice each: • 1. Vehicle • 2. 50 mg/15 ml/kg, i.v. of paclitaxel (3, 10, 17) • 3. […] 25 mg/15 ml/kg, i.v. of paclitaxel (3, 10, 17) • 5.

NCI-H460 NSCLC [6] = experiment: Antitumor activity against NCI-H460 xenograft (paclitaxel); settings: for reduction of the tumor volume: 5 days for 3 cycles
Protocol: as §2

[7] = A 0.28 mg/kg p.o. qdx5/w, 0.28 mg/kg
[8] = A 0.08 mg/kg p.o. qdx5/w, 3 cycles
[9] = docetaxel 20 mg/kg i.p. q3-4dx2
[10] = carboplatin 50 mg/kg i.p. q4dx2

CC[C@@]1(O)C(=O)OCc2c1cc1n(c2=O)Cc2c-1nc1ccccc1c2/C=N/OC(C)(C)C [A]
BWL % (body weight loss) (A2780 ovarian carcinoma; A 0.19 mg/kg p.o. qdx5/w): 6% | CR (complete response) (A2780 ovarian carcinoma; A 0.19 mg/kg p.o. qdx5/w): 8/8 | LCK (log10 cell kill) (A2780 ovarian carcinoma; A 0.19 mg/kg p.o. qdx5/w): 2.15 | TVI % (tumor volume inhibition) (A2780 ovarian carcinoma; A 0.19 mg/kg p.o. qdx5/w): 100% | Tox (dead/treated mice) (A2780 ovarian carcinoma; A 0.19 mg/kg p.o. qdx5/w): 0/8 | BWL % (body weight loss) (A2780 ovarian carcinoma; A 0.19 mg/kg p.o. qdx5/wx2w): 6% | CR (complete response) (A2780 ovarian carcinoma; A 0.19 mg/kg p.o. qdx5/wx2w): 4/7 | LCK (log10 cell kill) (A2780 ovarian carcinoma; A 0.19 mg/kg p.o. qdx5/wx2w): 3.15 | TVI % (tumor volume inhibition) (A2780 ovarian carcinoma; A 0.19 mg/kg p.o. qdx5/wx2w): 100% | Tox (dead/treated mice) (A2780 ovarian carcinoma; A 0.19 mg/kg p.o. qdx5/wx2w): 0/7 | BWL % (body weight loss) (A2780 ovarian carcinoma; A 0.28 mg/kg p.o. qdx5/w): 13% | CR (complete response) (A2780 ovarian carcinoma; A 0.28 mg/kg p.o. qdx5/w): 8/8 | TVI % (tumor volume inhibition) (A2780 ovarian carcinoma; A 0.28 mg/kg p.o. qdx5/w): 100% | Tox (dead/treated mice) (A2780 ovarian carcinoma; A 0.28 mg/kg p.o. qdx5/w): 0/8 | LCK (log10 cell kill) (A2780 ovarian carcinoma; [7]): 2.44 | CR (complete response) (MCF-7 human breast ca.; A 0.19 mg/kg p.o. qdx5/w): 1/8 | TVI % (tumor volume inhibition) (MCF-7 human breast ca.; A 0.19 mg/kg p.o. qdx5/w): 81% | Tox (dead/treated mice) (MCF-7 human breast ca.; A 0.19 mg/kg p.o. qdx5/w): 2/8 | TVI % (tumor volume inhibition) (MCF-7 human breast ca.; A 0.28 mg/kg p.o. qdx5/w): 70% | Tox (dead/treated mice) (MCF-7 human breast ca.; A 0.28 mg/kg p.o. qdx5/w): 1/8 | CR (complete response) (MCF-7 human breast ca.; [7]): 1/8 | BWL % (body weight loss) (MCF-7 human breast ca.; 0.19 mg/kg): 10% | BWL % (body weight loss) (MCF-7 human breast ca.; 0.28 mg/kg): 9% | BWL % (body weight loss) ([1]; A 0.19 mg/kg p.o. qdx5/w): 1% | LCK (log10 cell kill) ([1]; A 0.19 mg/kg p.o. qdx5/w): 0.18 | TVI % (tumor volume inhibition) ([1]; A 0.19 mg/kg p.o. qdx5/w): 35% | Tox (dead/treated mice) ([1]; A 0.19 mg/kg p.o. qdx5/w): 0/8 | BWL % (body weight loss) ([1]; A 0.28 mg/kg p.o. qdx5/w): 7% | LCK (log10 cell kill) ([1]; A 0.28 mg/kg p.o. qdx5/w): 0.23 | TVI % (tumor volume inhibition) ([1]; A 0.28 mg/kg p.o. qdx5/w): 46% | Tox (dead/treated mice) ([1]; A 0.28 mg/kg p.o. qdx5/w): 0/8 | BWL % (body weight loss) ([2]; A 0.19 mg/kg p.o. qdx5/w): 8% | CR (complete response) ([2]; A 0.19 mg/kg p.o. qdx5/w): 1/8 | LCK (log10 cell kill) ([2]; A 0.19 mg/kg p.o. qdx5/w): 1.14 | TVI % (tumor volume inhibition) ([2]; A 0.19 mg/kg p.o. qdx5/w): 79% | Tox (dead/treated mice) ([2]; A 0.19 mg/kg p.o. qdx5/w): 0/8 | BWL % (body weight loss) ([2]; A 0.19 mg/kg p.o. qdx5/wx2w): 7% | CR (complete response) ([2]; A 0.19 mg/kg p.o. qdx5/wx2w): 0/7 | LCK (log10 cell kill) ([2]; A 0.19 mg/kg p.o. qdx5/wx2w): 2.3 | TVI % (tumor volume inhibition) ([2]; A 0.19 mg/kg p.o. qdx5/wx2w): 94% | Tox (dead/treated mice) ([2]; A 0.19 mg/kg p.o. qdx5/wx2w): 0/7 | BWL % (body weight loss) ([2]; A 0.28 mg/kg p.o. qdx5/w): 16% | CR (complete response) ([2]; A 0.28 mg/kg p.o. qdx5/w): 0/8 | LCK (log10 cell kill) ([2]; A 0.28 mg/kg p.o. qdx5/w): 1.45 | TVI % (tumor volume inhibition) ([2]; A 0.28 mg/kg p.o. qdx5/w): 94% | Tox (dead/treated mice) ([2]; A 0.28 mg/kg p.o. qdx5/w): 1/8 | CR (complete response) (DU145 prostate carcinoma; A 0.19 mg/kg p.o. qdx5/w): 0/8 | LCK (log10 cell kill) (DU145 prostate carcinoma; A 0.19 mg/kg p.o. qdx5/w): 0.28 | TVI % (tumor volume inhibition) (DU145 prostate carcinoma; A 0.19 mg/kg p.o. qdx5/w): 25% | Tox (dead/treated mice) (DU145 prostate carcinoma; A 0.19 mg/kg p.o. qdx5/w): 0/8 | CR (complete response) (DU145 prostate carcinoma; A 0.25 mg/kg p.o. qdx5/w): 0/8 | LCK (log10 cell kill) (DU145 prostate carcinoma; A 0.25 mg/kg p.o. qdx5/w): 0.28 | TVI % (tumor volume inhibition) (DU145 prostate carcinoma; A 0.25 mg/kg p.o. qdx5/w): 53% | Tox (dead/treated mice) (DU145 prostate carcinoma; A 0.25 mg/kg p.o. qdx5/w): 0/8 | BWL % (body weight loss) (DU145 prostate carcinoma; 0.19 mg/kg): 4% | BWL % (body weight loss) (DU145 prostate carcinoma; 0.25 mg/kg): 8% | BWL % (body weight loss) ([3]; A 0.07 mg/kg p.o. qdx5/w): (+2.5) % | T/C % ([3]; A 0.07 mg/kg p.o. qdx5/w): 93% | Tox (dead/treated mice) ([3]; A 0.07 mg/kg p.o. qdx5/w): 9/9 | BWL % (body weight loss) ([3]; A 0.14 mg/kg p.o. qdx5/w): 1% | T/C % ([3]; A 0.14 mg/kg p.o. qdx5/w): 46% | Tox (dead/treated mice) ([3]; A 0.14 mg/kg p.o. qdx5/w): 0/9 | BWL % (body weight loss) ([3]; A 0.21 mg/kg p.o. qdx5/w): 1% | T/C % ([3]; A 0.21 mg/kg p.o. qdx5/w): 5% | Tox (dead/treated mice) ([3]; A 0.21 mg/kg p.o. qdx5/w): 1/9 | MTD at 5 days ([4]; CD1 nu/nu, mouse, in vivo, po, p.o. qdx5): 0.28 mg/kg | MTD ([4]; female, CD1 nu/nu, mouse, in vivo, oral, qdx5/w, A2780/DDP model, read-out: approximate maximum tolerated dose): ~0.28 mg/kg | MTD ([4]; male, mouse, in vivo, oral, qdx5/w, DU145 model, read-out: approximate maximum tolerated dose): ~0.25 mg/kg | BWL % (body weight loss) (NCI-H460 NSCLC [5]; 0.08 mg/kg): 0% | BWL % (body weight loss) (NCI-H460 NSCLC [5]; 0.125 mg/kg): 0% | BWL % (body weight loss) (NCI-H460 NSCLC [5]; 0.25 mg/kg): 0% | T/C % (TW in treated mice/TW in control mice × 100) (NCI-H460 NSCLC [6]; [8]): 59.5% | Tox (dead/treated mice) (NCI-H460 NSCLC [6]; [8]): 0/8 | T/C % (TW in treated mice/TW in control mice × 100) (NCI-H460 NSCLC [6]; A 0.125 mg/kg p.o. qdx5/w, 3 cycles): 9.9% | Tox (dead/treated mice) (NCI-H460 NSCLC [6]; A 0.125 mg/kg p.o. qdx5/w, 3 cycles, 0.125 mg/kg): 0/8 | reduction of the tumor volume (NCI-H460 NSCLC [6]; A 0.125 mg/kg): ~90% | T/C % (TW in treated mice/TW in control mice × 100) (NCI-H460 NSCLC [6]; A 0.25 mg/kg p.o. qdx5/w, 3 cycles): 1.5% | Tox (dead/treated mice) (NCI-H460 NSCLC [6]; A 0.25 mg/kg p.o. qdx5/w, 3 cycles, 0.25 mg/kg): 0/8 | reduction of the tumor volume (NCI-H460 NSCLC [6]; A 0.25 mg/kg): about 99%

CC(=O)O[C@@]12CO[C@@H]1C[C@H](O)[C@@]1(C)C(=O)[C@H](O)C3=C(C)[C@@H](OC(=O)[C@H](O)[C@@H](NC(=O)OC(C)(C)C)c4ccccc4)C[C@@](O)([C@@H](OC(=O)c4ccccc4)[C@H]21)C3(C)C [B, docetaxel, reference compound]
CR (complete response) (MCF-7 human breast ca.; [9]): 1/8 | TVI % (tumor volume inhibition) (MCF-7 human breast ca.; [9]): 73% | TVI % (tumor volume inhibition) ([2]; docetaxel 20 mg/kg i.p. q4dx2): 63% | MTD ([4]; CD1 nu/nu, mouse, in vivo, ip, docetaxel i.p. q4dx2, read-out: MTD): 20 mg/kg

CC(=O)O[C@H]1C(=O)[C@@]2(C)[C@H]([C@H](OC(=O)c3ccccc3)[C@]3(O)C[C@H](OC(=O)[C@H](O)[C@@H](NC(=O)c4ccccc4)c4ccccc4)C(C)=C1C3(C)C)[C@]1(OC(C)=O)CO[C@@H]1C[C@@H]2O [B, paclitaxel, reference compound]
MTD ([4]; female, CD1 nu/nu, mouse, in vivo, iv, paclitaxel i.v. q7dx3, read-out: tolerated dose (MTD)): 50 mg/kg | T/C % (TW in treated mice/TW in control mice × 100) (NCI-H460 NSCLC [6]; paclitaxel 25 mg/kg i.v. q7dx3): 55.2% | T/C % (TW in treated mice/TW in control mice × 100) (NCI-H460 NSCLC [6]; paclitaxel 33.3 mg/kg i.v. q7dx3): 36.8% | T/C % (TW in treated mice/TW in control mice × 100) (NCI-H460 NSCLC [6]; paclitaxel 50 mg/kg i.v. q7dx3): 38.6%

carboplatin [reference compound]
TVI % (tumor volume inhibition) [1, 10]: 34% | TVI % (tumor volume inhibition) [2, 10]: 59% | MTD ([4]; carboplatin i.p. q4dx2): 50 mg/kg
